# Experimental data taken from patent publication US20050288316A1, “Beta-carbolines as growth hormone secretagogue receptor (GHSR) antagonists” (priority 2003, published 2005).
# Experiments:
# [1] = molecular target: T1, human GHSR (Homo sapiens, UniProt Q92847); assay: Functional FLIPR assay: inhibition of the ghrelin-evoked peak response in CHO cells stably expressing human GHSR (IC50, functional Ki); type: cell-based; details: functional Ki calculated from IC50 by Cheng-Prusoff equation, Fluo-4AM, ghrelin at EC70
# T1 construct: host or cells: Chinese hamster ovary (CHO) cells
# Description: Chinese hamster ovary cells (CHO), cell line (ES-410-F) purchased from Euroscreen, stably expressing the human GHSR seeded in 96 well plates are pre-loaded with Fluo-4AM fluorescent dye for 60 min before addition of test compounds (5 μM for primary screen). Fluorescent intensity is recorded using a Fluorometric imaging plate reader (FLIPR 98R 96-well format, Molecular Devices) and inhibition of the peak response evoked by ghrelin (EC70 concentration) is calculated.
# Potency (IC50) determinations are performed utilizing the same functional assay as described for primary screening, applying the compounds in the concentration range of 170 pM to 10 μM or 340 pM to 20 μM.
# The calculation of the functional Ki values for the inhibitors was performed by use of Activity Base. The Ki value is calculated from IC50 using the Cheng Prushoff equation (with reversible inhibition that follows the Michaelis-Menten equation): […] [Cheng, Y. C.; Prushoff, W. H. Biochem. Pharmacol. 1973, 22, 3099-3108]. […]
# T1 sequence (Q92847 whole entry): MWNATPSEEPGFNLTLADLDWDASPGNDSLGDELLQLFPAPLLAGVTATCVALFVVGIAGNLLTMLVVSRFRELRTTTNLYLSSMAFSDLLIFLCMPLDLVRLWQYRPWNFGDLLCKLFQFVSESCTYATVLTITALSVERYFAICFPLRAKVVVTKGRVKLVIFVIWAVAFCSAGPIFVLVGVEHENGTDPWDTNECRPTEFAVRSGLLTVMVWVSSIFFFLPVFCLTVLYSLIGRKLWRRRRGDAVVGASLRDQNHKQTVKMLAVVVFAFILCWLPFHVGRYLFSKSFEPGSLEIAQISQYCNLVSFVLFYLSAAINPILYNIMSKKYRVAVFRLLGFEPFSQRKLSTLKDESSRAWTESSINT
Ki [1] [µM],melting point [°C],SMILES
0.06,–,"COc1ccc2[nH]c3c(c2c1)CCNC31CCN(CCOc2ccccc2)C1 (stereo not drawn) [Example 10, 6-Methoxy-1′-(2-phenoxyethyl)-2,3,4,9-tetrahydrospiro[beta-carboline-1,3′-pyrrolidine]]"
–,> 180,"COc1ccc2[nH]c3c(c2c1)CCNC31CCNC1 (stereo not drawn) [Comparative Example 1, 6-Methoxy-2,3,4,9-tetrahydrospiro[beta-carboline-1,3′-pyrrolidine]]"
0.059,–,"CCCCNC(=O)N1CCc2c([nH]c3ccc(OC)cc23)C12CCN(CCOc1ccccc1)C2 (stereo not drawn) [Example 30, N-Butyl-6-methoxy-1′-(2-phenoxyethyl)-4,9-dihydrospiro[beta-carboline-1,3′-pyrrolidine]-2(3H)-carboxamide]"
0.572,–,"Fc1ccc2c3c([nH]c2c1)C1(CCN(CCOc2ccccc2)C1)NCC3 (stereo not drawn) [Example 11, 7-Fluoro-1′-(2-phenoxyethyl)-2,3,4,9-tetrahydrospiro[beta-carboline-1,3′-pyrrolidine]]"
